Measured values published in patent US9283222B2 (priority 2006, dated 2016).
Like-named read-outs stand apart in the source and are kept apart here.

Legend:
[1] = molecular target: T1, PARP in C41 cells (Homo sapiens (Human), UniProt P09874); assay: cell-based
[2] = molecular target: Recombinant Human Poly(ADP-Ribose) Polymerase (PARP), PARP-1 (Homo sapiens (Human), UniProt P09874); settings: read-out: PARP-1 (Ki)
[3] = molecular target: T1, PARP in C41 cells
[4] = Table 2, A2 is C1-alkyl versus no A2 (bond)
[5] = Table 3, H analogs versus para-F analogs
[6] = Table 3, C41 cells, ratio to comparator EC50
[7] = Table 1, text calls the values EC50s

Chain of Recombinant Human Poly(ADP-Ribose) Polymerase (PARP), PARP-1 (P09874 whole entry): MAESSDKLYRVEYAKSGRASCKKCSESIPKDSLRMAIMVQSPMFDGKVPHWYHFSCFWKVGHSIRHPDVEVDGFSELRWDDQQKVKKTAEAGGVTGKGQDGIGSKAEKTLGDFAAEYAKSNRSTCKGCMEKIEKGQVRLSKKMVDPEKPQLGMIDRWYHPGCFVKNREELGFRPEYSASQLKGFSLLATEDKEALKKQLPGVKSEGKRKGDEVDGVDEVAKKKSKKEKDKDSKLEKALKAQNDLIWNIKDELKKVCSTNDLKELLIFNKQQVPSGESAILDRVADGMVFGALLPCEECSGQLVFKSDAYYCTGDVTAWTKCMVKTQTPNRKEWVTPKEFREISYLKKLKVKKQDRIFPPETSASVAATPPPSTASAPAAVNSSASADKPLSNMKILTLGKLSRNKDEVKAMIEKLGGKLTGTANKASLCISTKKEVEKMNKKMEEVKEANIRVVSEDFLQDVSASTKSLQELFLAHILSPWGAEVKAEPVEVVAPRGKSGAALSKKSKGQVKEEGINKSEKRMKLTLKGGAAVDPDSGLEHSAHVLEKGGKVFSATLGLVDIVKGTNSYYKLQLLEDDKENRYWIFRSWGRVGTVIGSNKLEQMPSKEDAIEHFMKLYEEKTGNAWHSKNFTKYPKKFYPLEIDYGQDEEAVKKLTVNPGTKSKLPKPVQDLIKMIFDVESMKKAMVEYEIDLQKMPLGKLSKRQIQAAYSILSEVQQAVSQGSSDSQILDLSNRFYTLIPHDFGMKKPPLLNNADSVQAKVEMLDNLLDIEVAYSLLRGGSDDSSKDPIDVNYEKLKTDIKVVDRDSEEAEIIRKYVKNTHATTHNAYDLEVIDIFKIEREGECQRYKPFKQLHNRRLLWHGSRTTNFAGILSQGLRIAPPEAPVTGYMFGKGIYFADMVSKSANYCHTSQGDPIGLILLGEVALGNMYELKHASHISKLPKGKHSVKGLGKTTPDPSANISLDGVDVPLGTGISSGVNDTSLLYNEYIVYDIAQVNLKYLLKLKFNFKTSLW
T1 sequence (P09874 whole entry): as above

Row | Compound | Ki [2, 5] [nM] | Cell EC50 ratio [3, 6] | other results
1 | CCCN1CCC(c2nc3cccc(C(N)=O)c3[nH]2)CC1 |  |  | EC50 ([1]; EC50 generally ranged, range over all assays): 1 to 13 nM; EC50 ([1]; mean EC50 for all assays carried out, n=270): 3.2 nM
2 | O=C1CCN1c1cc(Cc2n[nH]c(=O)c3c2CCCC3)ccc1F |  |  | Ki [2, 4]: 6 nM; Cell Ratio EC50 ([3]; Table 2, C41 cells, ratio to comparator EC50): 16.4
3 | NCC(=O)Nc1cc(Cc2n[nH]c(=O)c3c2CCCC3)ccc1F | 2.9 |  | Cell EC50 ratio [3]: 5.8
4 | O=C(Nc1cc(Cc2n[nH]c(=O)c3c2CCCC3)ccc1F)C1CNC1 | 0.7 |  | Cell EC50 ratio [3]: 34.4
5 | O=C1CCC(=O)N1c1cccc(Cc2n[nH]c(=O)c3c2CCCC3)c1 | 2 | 1.7 | 
6 | O=C1CCC(=O)N1c1cc(Cc2n[nH]c(=O)c3c2CCCC3)ccc1F | 1.1 | 0.19 | 
7 | O=C(CCN1CCCCC1)Nc1cc(Cc2n[nH]c(=O)c3c2CCCC3)ccc1F | 18.4 |  | Cell EC50 ratio [3]: 5.6
8 | CN(C)CCN(C)C(=O)c1cccc(Cc2n[nH]c(=O)c3c2CCCC3)c1 | 13 | 3 | 
9 | O=C(c1cc(Cc2n[nH]c(=O)c3c2CCCC3)ccc1F)N1CCN(c2cccnc2)CC1 [Example 756, 4-{4-fluoro-3-[(4-pyridin-3-ylpiperazin-1-yl)carbonyl]benzyl}-5,6,7,8-tetrahydrophthalazin-1(2H)-one] |  |  | Ki [2, 7]: 0.9 nM
10 | O=C(c1cc(Cc2n[nH]c(=O)c3c2CCCC3)ccc1F)N1CCN(c2cncnc2)CC1 [Example 757, 4-{4-fluoro-3-[(4-pyrimidin-5-ylpiperazin-1-yl)carbonyl]benzyl}-5,6,7,8-tetrahydrophthalazin-1(2H)-one] |  |  | Ki [2, 7]: 1.2 nM
11 | O=C(NC1CCN(C(=O)c2cc(Cc3n[nH]c(=O)c4c3NCCC4)ccc2F)CC1)c1cn[nH]c1 [Example 758, N-(1-{2-fluoro-5-[(5-oxo-1,2,3,4,5,6-hexahydropyrido[2,3-d]pyridazin-8-yl)methyl]benzoyl}piperidin-4-yl)-1H-pyrazole-4-carboxamide] |  |  | Ki [2, 7]: 1.4 nM
12 | CN1CCN(C(=O)c2cc(Cc3n[nH]c(=O)c4c3CCCC4)ccc2F)CC1=O [Example 759, 4-{4-fluoro-3-[(4-methyl-3-oxopiperazin-1-yl)carbonyl]benzyl}-5,6,7,8-tetrahydrophthalazin-1(2H)-one] |  |  | Ki [2, 7]: 0.3 nM
13 | CCN(CCNC(=O)C1CC1)C(=O)c1cc(Cc2n[nH]c(=O)c3c2CCCC3)ccc1F [Example 761, N-{2-[(cyclopropylcarbonyl)amino]ethyl}-N-ethyl-2-fluoro-5-[(4-oxo-3,4,5,6,7,8-hexahydrophthalazin-1-yl)methyl]benzamide] |  |  | Ki [2, 7]: 0.6 nM
14 | CCN(CCNC(=O)c1c(F)cccc1F)C(=O)c1cc(Cc2n[nH]c(=O)c3c2CCCC3)ccc1F [Example 762, N-{2-[(2,6-difluorobenzoyl)amino]ethyl}-N-ethyl-2-fluoro-5-[(4-oxo-3,4,5,6,7,8-hexahydrophthalazin-1-yl)methyl]benzamide] |  |  | Ki [2, 7]: 1 nM
15 | CCN(CCNC(=O)c1cccnc1)C(=O)c1cc(Cc2n[nH]c(=O)c3c2CCCC3)ccc1F [Example 763, N-[2-(ethyl{2-fluoro-5-[(4-oxo-3,4,5,6,7,8-hexahydrophthalazin-1-yl)methyl]benzoyl}amino)ethyl]nicotinamide] |  |  | Ki [2, 7]: 1 nM
16 | O=C1CCCN1c1cc(Cc2n[nH]c(=O)c3c2CCCC3)ccc1F [drawing 7] |  |  | Ki [2, 4]: 1.2 nM; Cell Ratio EC50 [3]: 0.85
17 | O=C1CCCN1c1cc(-c2n[nH]c(=O)c3c2CCCC3)ccc1F [drawing 8] |  |  | Ki [2, 4]: 191 nM
18 | NCC(=O)Nc1cccc(Cc2n[nH]c(=O)c3c2CCCC3)c1 [drawing 10] | 12 | 22.5 | 
19 | O=C(Nc1cccc(Cc2n[nH]c(=O)c3c2CCCC3)c1)C1CNC1 [drawing 12] | 6.3 |  | Cell EC50 ratio [3]: 246

Row | Compound | Ki [2, 5] [nM] | Cell EC50 ratio [3, 6] | other results
20 | COc1ccc(C(=O)CCC(=O)Nc2cccc(Cc3n[nH]c(=O)c4c3CCCC4)c2)cc1 [drawing 14] | 1.9 | 20.9 | 
21 | COc1ccc(C(=O)CCC(=O)Nc2cc(Cc3n[nH]c(=O)c4c3CCCC4)ccc2F)cc1 [drawing 15] | 0.7 | 2.6 | 
22 | O=C1CCCN1c1cccc(Cc2n[nH]c(=O)c3c2CCCC3)c1 [drawing 16] | 39.6 | 40.9 | 
23 | O=C1CCCN1c1cc(Cc2n[nH]c(=O)c3c2CCCC3)ccc1F [drawing 17] | 1.2 |  | Cell EC50 ratio [3]: 0.85
24 | O=C(CCCC(=O)Nc1cccc(Cc2n[nH]c(=O)c3c2CCCC3)c1)Nc1ccccc1 [drawing 20] | 3.2 | 3.2 | 
25 | O=C(CCCC(=O)Nc1cc(Cc2n[nH]c(=O)c3c2CCCC3)ccc1F)Nc1ccccc1 [drawing 21] | 0.6 | 0.34 | 
26 | Cc1c(C(=O)Nc2cccc(Cc3n[nH]c(=O)c4c3CCCC4)c2)cnn1-c1ccccc1 [drawing 22] | 9 | 14.1 | 
27 | Cc1c(C(=O)Nc2cc(Cc3n[nH]c(=O)c4c3CCCC4)ccc2F)cnn1-c1ccccc1 [drawing 23] | 15.8 | 17.6 | 
28 | O=C(CCN1CCCCC1)Nc1cccc(Cc2n[nH]c(=O)c3c2CCCC3)c1 [drawing 24] | 280 |  | 
29 | O=C(c1cccc(Cc2n[nH]c(=O)c3c2CCCC3)c1)N1CCN(c2ncccn2)CC1 [drawing 26] | 0.8 | 0.93 | 
30 | O=C(c1cc(Cc2n[nH]c(=O)c3c2CCCC3)ccc1F)N1CCN(c2ncccn2)CC1 [drawing 27] | 0.7 | 0.3 | 
31 | CC(=O)N1CCN(C(=O)c2cccc(Cc3n[nH]c(=O)c4c3CCCC4)c2)CC1 [drawing 28] | 3 |  | Cell EC50 ratio [3]: 6.1
32 | CC(=O)N1CCN(C(=O)c2cc(Cc3n[nH]c(=O)c4c3CCCC4)ccc2F)CC1 [drawing 29] | 0.1 | 2.3 | 
33 | CCN1CCN(C(=O)c2cccc(Cc3n[nH]c(=O)c4c3CCCC4)c2)CC1 [drawing 30] | 10 | 1.8 | 
34 | CCN1CCN(C(=O)c2cc(Cc3n[nH]c(=O)c4c3CCCC4)ccc2F)CC1 [drawing 31] | 1.8 | 0.4 | 
35 | O=C(c1cccc(Cc2n[nH]c(=O)c3c2CCCC3)c1)N1CCN(c2ccccn2)CC1 [drawing 32] | 3 | 1.9 | 
36 | O=C(c1cc(Cc2n[nH]c(=O)c3c2CCCC3)ccc1F)N1CCN(c2ccccn2)CC1 [drawing 33] | 2 | 0.4 | 
37 | O=C(c1cccc(Cc2n[nH]c(=O)c3c2CCCC3)c1)N1CCN(c2ccccc2)CC1 [drawing 34] | 3 | 3.2 | 
38 | O=C(c1cc(Cc2n[nH]c(=O)c3c2CCCC3)ccc1F)N1CCN(c2ccccc2)CC1 [drawing 35] | 3 | 0.9 | 

Row | Compound | Ki [2, 5] [nM] | Cell EC50 ratio [3, 6] | other results
39 | O=C(c1cccc(Cc2n[nH]c(=O)c3c2CCCC3)c1)N1CCN(c2ccccc2Cl)CC1 [drawing 36] | 10 | 15 | 
40 | O=C(c1cc(Cc2n[nH]c(=O)c3c2CCCC3)ccc1F)N1CCN(c2ccccc2Cl)CC1 [drawing 37] | 5 | 6 | 
41 | O=C(c1cccc(Cc2n[nH]c(=O)c3c2CCCC3)c1)N1CCN(c2ccccc2F)CC1 [drawing 38] | 4 |  | 
42 | O=C(c1cc(Cc2n[nH]c(=O)c3c2CCCC3)ccc1F)N1CCN(c2ccccc2F)CC1 [drawing 39] | 13 | 1.3 | 
43 | O=C(c1cccc(Cc2n[nH]c(=O)c3c2CCCC3)c1)N1CCN(c2ccc(F)cc2)CC1 [drawing 40] | 6 | 2.2 | 
44 | O=C(c1cc(Cc2n[nH]c(=O)c3c2CCCC3)ccc1F)N1CCN(c2ccc(F)cc2)CC1 [drawing 41] | 4 |  | Cell EC50 ratio [3]: 0.8
45 | CN1CCCN(C(=O)c2cccc(Cc3n[nH]c(=O)c4c3CCCC4)c2)CC1 [drawing 42] | 10 | 3.8 | 
46 | CN1CCCN(C(=O)c2cc(Cc3n[nH]c(=O)c4c3CCCC4)ccc2F)CC1 [drawing 43] | 1.5 |  | Cell EC50 ratio [3]: 0.6
47 | NC(=O)C1CCCN(C(=O)c2cccc(Cc3n[nH]c(=O)c4c3CCCC4)c2)C1 (centres unmarked) [drawing 44] | 19 |  | 
48 | NC(=O)C1CCCN(C(=O)c2cc(Cc3n[nH]c(=O)c4c3CCCC4)ccc2F)C1 (centres unmarked) [drawing 45] | 3 | 28 | 
49 | O=C(c1cccc(Cc2n[nH]c(=O)c3c2CCCC3)c1)N1CCC(O)CC1 [drawing 46] | 5 | 13 | 
50 | O=C(c1cc(Cc2n[nH]c(=O)c3c2CCCC3)ccc1F)N1CCC(O)CC1 [drawing 47] | 1.3 | 2 | 
51 | NC(=O)C1CCN(C(=O)c2cccc(Cc3n[nH]c(=O)c4c3CCCC4)c2)CC1 [drawing 48] | 5 | 215 | 
52 | NC(=O)C1CCN(C(=O)c2cc(Cc3n[nH]c(=O)c4c3CCCC4)ccc2F)CC1 [drawing 49] | 2.7 | 25 | 
53 | CCN(CC)C(=O)C1CCCN(C(=O)c2cc(Cc3n[nH]c(=O)c4c3CCCC4)ccc2F)C1 (centres unmarked) [drawing 51] | 6 | 17 | 
54 | CN(C)CCN(C)C(=O)c1cc(Cc2n[nH]c(=O)c3c2CCCC3)ccc1F [drawing 53] | 3.6 | 0.7 | 
55 | CN1CCN(CCNC(=O)c2cccc(Cc3n[nH]c(=O)c4c3CCCC4)c2)CC1 [drawing 54] | 24 | 31 | 
56 | CN1CCN(CCNC(=O)c2cc(Cc3n[nH]c(=O)c4c3CCCC4)ccc2F)CC1 [drawing 55] | 1.1 | 0.6 | 
